Results published in publication PMC9506414, “Novel 2,6,9-Trisubstituted Purines as Potent CDK Inhibitors Alleviating Trastuzumab-Resistance of HER2-Positive Breast Cancers” (Pharmaceuticals, 2022).

Assays:
Experiment in all cases: Kinome-wide inhibition profiling
Format in all cases: biochemical
MARK1 = biological target: T1, MARK1 (Homo sapiens, UniProt Q9P0L2)
T1 construct: purchased Reaction Biology Corp
Experimental: (§1) In vitro CDK12/cyclinK assays for all compounds and in vitro kinome-wide inhibition profiling of 30d at 10 μM were performed by a CRO company (Reaction Biology Corp., San Diego, CA, USA).

PBK/TOPK = biological target: T2, PBK/TOPK (Homo sapiens, UniProt Q96KB5)
T2 construct: purchased Reaction Biology Corp
Experimental: as §1

CSNK1D = biological target: T3, CSNK1D (Homo sapiens, UniProt P48730)
T3 construct: purchased Reaction Biology Corp
Experimental: as §1

PASK = biological target: T4, PASK (Homo sapiens, UniProt Q96RG2)
T4 construct: purchased Reaction Biology Corp
Experimental: as §1

STK23 = biological target: T5, STK23 (Homo sapiens, UniProt Q9UPE1)
T5 construct: purchased Reaction Biology Corp
Experimental: as §1

PKN3 = biological target: T6, PKN3 (Homo sapiens, UniProt Q6P5Z2)
T6 construct: purchased Reaction Biology Corp
Experimental: as §1

BMX = biological target: T7, BMX (Homo sapiens, UniProt P51813)
T7 construct: purchased Reaction Biology Corp
Experimental: as §1

CDK6/cyclinD1 = biological target: T8, CDK6/cyclinD1 (Homo sapiens, UniProt Q00534)
T8 construct: purchased Reaction Biology Corp
Experimental: as §1

RSK3 = biological target: T9, RSK3 (Homo sapiens, UniProt Q15349)
T9 construct: purchased Reaction Biology Corp
Experimental: as §1

CDK4/cyclinD1 = biological target: T10, CDK4/cyclinD1 (Homo sapiens, UniProt P11802)
T10 construct: purchased Reaction Biology Corp
Experimental: as §1

CHEK1 = biological target: T11, CHEK1 (Homo sapiens, UniProt O14757)
T11 construct: purchased Reaction Biology Corp
Experimental: as §1

GSK3b = biological target: T12, GSK3b (Homo sapiens, UniProt P49841)
T12 construct: purchased Reaction Biology Corp
Experimental: as §1

FLT3 = biological target: T13, FLT3 (Homo sapiens, UniProt P36888)
T13 construct: purchased Reaction Biology Corp
Experimental: as §1

ASK1 = biological target: T14, ASK1 (Homo sapiens, UniProt Q99683)
T14 construct: purchased Reaction Biology Corp
Experimental: as §1

NLK = biological target: T15, NLK (Homo sapiens, UniProt Q9UBE8)
T15 construct: purchased Reaction Biology Corp
Experimental: as §1

HIPK3 = biological target: T16, HIPK3 (Homo sapiens, UniProt Q9H422)
T16 construct: purchased Reaction Biology Corp
Experimental: as §1

MAP4K5 = biological target: T17, MAP4K5 (Homo sapiens, UniProt Q9Y4K4)
T17 construct: purchased Reaction Biology Corp
Experimental: as §1

MEK3 = biological target: T18, MEK3 (Homo sapiens, UniProt P46734)
T18 construct: purchased Reaction Biology Corp
Experimental: as §1

AurkB = biological target: T19, AurkB (Homo sapiens, UniProt Q96GD4)
T19 construct: purchased Reaction Biology Corp
Experimental: as §1

PKAC-gamma = biological target: T20, PKAC-gamma (Homo sapiens, UniProt P22612)
T20 construct: purchased Reaction Biology Corp
Experimental: as §1

PAK1 = biological target: T21, PAK1 (Homo sapiens, UniProt Q13153)
T21 construct: purchased Reaction Biology Corp
Experimental: as §1

TESK1 = biological target: T22, TESK1 (Homo sapiens, UniProt Q15569)
T22 construct: purchased Reaction Biology Corp
Experimental: as §1

IRAK2 = biological target: T23, IRAK2 (Homo sapiens, UniProt O43187)
T23 construct: purchased Reaction Biology Corp
Experimental: as §1

S6K1 = biological target: T24, S6K1 (Homo sapiens, UniProt P23443)
T24 construct: purchased Reaction Biology Corp
Experimental: as §1

LIMK1 = biological target: T25, LIMK1 (Homo sapiens, UniProt P53667)
T25 construct: purchased Reaction Biology Corp
Experimental: as §1

DDR2 = biological target: T26, DDR2 (Homo sapiens, UniProt Q16832)
T26 construct: purchased Reaction Biology Corp
Experimental: as §1

CDK1/cyclinB = biological target: T27, CDK1/cyclinB (Homo sapiens, UniProt P06493)
T27 construct: purchased Reaction Biology Corp
Experimental: as §1

NEK4 = biological target: T28, NEK4 (Homo sapiens, UniProt P51957)
T28 construct: purchased Reaction Biology Corp
Experimental: as §1

NEK3 = biological target: T29, NEK3 (Homo sapiens, UniProt P51956)
T29 construct: purchased Reaction Biology Corp
Experimental: as §1

RSK1 = biological target: T30, RSK1 (Homo sapiens, UniProt Q15418)
T30 construct: purchased Reaction Biology Corp
Experimental: as §1

SYK = biological target: T31, SYK (Homo sapiens, UniProt P43405)
T31 construct: purchased Reaction Biology Corp
Experimental: as §1

MLK3 = biological target: T32, MLK3 (Homo sapiens, UniProt Q16584)
T32 construct: purchased Reaction Biology Corp
Experimental: as §1

PKN1 = biological target: T33, PKN1 (Homo sapiens, UniProt Q16512)
T33 construct: purchased Reaction Biology Corp
Experimental: as §1

MLK4 = biological target: T34, MLK4 (Homo sapiens, UniProt Q5TCX8)
T34 construct: purchased Reaction Biology Corp
Experimental: as §1

CIT = biological target: T35, CIT (Homo sapiens, UniProt O14578)
T35 construct: purchased Reaction Biology Corp
Experimental: as §1

EPHA1 = biological target: T36, EPHA1 (Homo sapiens, UniProt P21709)
T36 construct: purchased Reaction Biology Corp
Experimental: as §1

CDK16 = biological target: T37, CDK16 (Homo sapiens, UniProt Q00536)
T37 construct: purchased Reaction Biology Corp
Experimental: as §1

ARAF = biological target: T38, ARAF (Homo sapiens, UniProt P10398)
T38 construct: purchased Reaction Biology Corp
Experimental: as §1

SRMS = biological target: T39, SRMS (Homo sapiens, UniProt Q9H3Y6)
T39 construct: purchased Reaction Biology Corp
Experimental: as §1

PRKX = biological target: T40, PRKX (Homo sapiens, UniProt P51817)
T40 construct: purchased Reaction Biology Corp
Experimental: as §1

YSK4 = biological target: T41, YSK4 (Homo sapiens, UniProt Q56UN5)
T41 construct: purchased Reaction Biology Corp
Experimental: as §1

FRK = biological target: T42, FRK (Homo sapiens, UniProt P42685)
T42 construct: purchased Reaction Biology Corp
Experimental: as §1

PCTK2 = biological target: T43, PCTK2 (Homo sapiens, UniProt Q00537)
T43 construct: purchased Reaction Biology Corp
Experimental: as §1

CDK5/p35 = biological target: T44, CDK5/p35 (Homo sapiens, UniProt Q00535)
T44 construct: purchased Reaction Biology Corp
Experimental: as §1

T44 sequence (Q00535 whole entry): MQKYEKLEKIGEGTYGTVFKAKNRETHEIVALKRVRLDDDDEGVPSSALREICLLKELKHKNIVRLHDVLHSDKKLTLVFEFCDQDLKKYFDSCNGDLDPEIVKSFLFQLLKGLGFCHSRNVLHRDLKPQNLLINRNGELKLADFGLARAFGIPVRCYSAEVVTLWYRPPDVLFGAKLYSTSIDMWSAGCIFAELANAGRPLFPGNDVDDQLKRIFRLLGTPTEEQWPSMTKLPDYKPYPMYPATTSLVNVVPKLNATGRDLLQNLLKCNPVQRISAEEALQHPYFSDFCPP
T44 sequence (Q15078 whole entry partner): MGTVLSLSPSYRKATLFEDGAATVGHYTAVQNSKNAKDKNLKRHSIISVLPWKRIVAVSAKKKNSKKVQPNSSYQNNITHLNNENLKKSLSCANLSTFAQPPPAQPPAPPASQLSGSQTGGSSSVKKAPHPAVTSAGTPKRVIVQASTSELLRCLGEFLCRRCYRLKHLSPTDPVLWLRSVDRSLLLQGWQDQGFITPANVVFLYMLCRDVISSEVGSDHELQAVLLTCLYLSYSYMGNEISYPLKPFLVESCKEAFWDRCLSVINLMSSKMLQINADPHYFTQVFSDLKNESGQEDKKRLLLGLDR
T27 sequence (P06493 whole entry): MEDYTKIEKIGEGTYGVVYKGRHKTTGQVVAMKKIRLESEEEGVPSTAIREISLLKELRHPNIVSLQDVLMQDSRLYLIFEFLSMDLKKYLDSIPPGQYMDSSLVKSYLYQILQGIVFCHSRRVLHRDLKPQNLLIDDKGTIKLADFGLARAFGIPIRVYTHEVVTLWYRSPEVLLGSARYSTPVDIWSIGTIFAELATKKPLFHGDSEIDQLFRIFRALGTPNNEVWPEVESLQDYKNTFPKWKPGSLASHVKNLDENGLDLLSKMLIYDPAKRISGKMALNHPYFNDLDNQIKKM
T27 sequence (P14635 whole entry partner): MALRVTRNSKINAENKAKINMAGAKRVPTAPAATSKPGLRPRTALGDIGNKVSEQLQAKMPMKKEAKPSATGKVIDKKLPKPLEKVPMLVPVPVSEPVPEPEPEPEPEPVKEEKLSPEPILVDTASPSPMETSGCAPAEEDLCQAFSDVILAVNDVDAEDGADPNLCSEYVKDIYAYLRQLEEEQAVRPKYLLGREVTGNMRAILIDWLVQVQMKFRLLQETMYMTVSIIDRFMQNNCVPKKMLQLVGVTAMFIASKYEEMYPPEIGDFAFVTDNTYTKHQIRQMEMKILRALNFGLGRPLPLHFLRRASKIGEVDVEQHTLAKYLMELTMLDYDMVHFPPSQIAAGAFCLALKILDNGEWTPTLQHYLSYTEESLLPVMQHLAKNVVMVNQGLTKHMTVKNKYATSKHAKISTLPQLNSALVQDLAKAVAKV
T20 sequence (P22612 whole entry): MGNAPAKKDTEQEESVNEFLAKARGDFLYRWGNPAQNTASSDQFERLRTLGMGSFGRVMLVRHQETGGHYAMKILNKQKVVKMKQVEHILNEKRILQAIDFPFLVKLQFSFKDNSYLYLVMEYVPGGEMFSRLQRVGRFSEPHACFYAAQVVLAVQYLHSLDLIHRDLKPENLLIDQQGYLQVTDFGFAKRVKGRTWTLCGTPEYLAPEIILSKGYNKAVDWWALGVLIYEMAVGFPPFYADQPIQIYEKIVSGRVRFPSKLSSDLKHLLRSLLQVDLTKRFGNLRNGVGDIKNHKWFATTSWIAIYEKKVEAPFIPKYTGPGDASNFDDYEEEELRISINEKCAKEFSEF
T2 sequence (Q96KB5 whole entry): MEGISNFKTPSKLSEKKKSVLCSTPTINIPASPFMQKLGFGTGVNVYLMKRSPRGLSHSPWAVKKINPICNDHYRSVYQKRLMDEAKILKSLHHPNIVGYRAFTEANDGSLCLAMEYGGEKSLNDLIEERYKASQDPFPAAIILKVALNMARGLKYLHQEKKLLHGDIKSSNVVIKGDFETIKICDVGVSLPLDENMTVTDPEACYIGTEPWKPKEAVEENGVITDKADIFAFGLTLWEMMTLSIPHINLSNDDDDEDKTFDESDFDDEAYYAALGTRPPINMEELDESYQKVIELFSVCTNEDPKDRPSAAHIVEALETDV
T3 sequence (P48730 whole entry): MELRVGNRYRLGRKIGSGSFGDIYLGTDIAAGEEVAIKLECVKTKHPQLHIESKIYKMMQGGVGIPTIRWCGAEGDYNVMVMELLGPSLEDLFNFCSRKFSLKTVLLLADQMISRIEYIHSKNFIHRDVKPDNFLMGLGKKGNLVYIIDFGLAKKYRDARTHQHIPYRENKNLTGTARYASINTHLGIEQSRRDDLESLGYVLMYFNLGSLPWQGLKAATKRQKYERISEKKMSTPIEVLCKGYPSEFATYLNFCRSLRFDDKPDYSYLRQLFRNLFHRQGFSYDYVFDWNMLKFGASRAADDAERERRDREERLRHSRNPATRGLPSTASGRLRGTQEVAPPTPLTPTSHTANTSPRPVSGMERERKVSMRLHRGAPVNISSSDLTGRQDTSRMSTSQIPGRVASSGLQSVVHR
T34 sequence (Q5TCX8 whole entry): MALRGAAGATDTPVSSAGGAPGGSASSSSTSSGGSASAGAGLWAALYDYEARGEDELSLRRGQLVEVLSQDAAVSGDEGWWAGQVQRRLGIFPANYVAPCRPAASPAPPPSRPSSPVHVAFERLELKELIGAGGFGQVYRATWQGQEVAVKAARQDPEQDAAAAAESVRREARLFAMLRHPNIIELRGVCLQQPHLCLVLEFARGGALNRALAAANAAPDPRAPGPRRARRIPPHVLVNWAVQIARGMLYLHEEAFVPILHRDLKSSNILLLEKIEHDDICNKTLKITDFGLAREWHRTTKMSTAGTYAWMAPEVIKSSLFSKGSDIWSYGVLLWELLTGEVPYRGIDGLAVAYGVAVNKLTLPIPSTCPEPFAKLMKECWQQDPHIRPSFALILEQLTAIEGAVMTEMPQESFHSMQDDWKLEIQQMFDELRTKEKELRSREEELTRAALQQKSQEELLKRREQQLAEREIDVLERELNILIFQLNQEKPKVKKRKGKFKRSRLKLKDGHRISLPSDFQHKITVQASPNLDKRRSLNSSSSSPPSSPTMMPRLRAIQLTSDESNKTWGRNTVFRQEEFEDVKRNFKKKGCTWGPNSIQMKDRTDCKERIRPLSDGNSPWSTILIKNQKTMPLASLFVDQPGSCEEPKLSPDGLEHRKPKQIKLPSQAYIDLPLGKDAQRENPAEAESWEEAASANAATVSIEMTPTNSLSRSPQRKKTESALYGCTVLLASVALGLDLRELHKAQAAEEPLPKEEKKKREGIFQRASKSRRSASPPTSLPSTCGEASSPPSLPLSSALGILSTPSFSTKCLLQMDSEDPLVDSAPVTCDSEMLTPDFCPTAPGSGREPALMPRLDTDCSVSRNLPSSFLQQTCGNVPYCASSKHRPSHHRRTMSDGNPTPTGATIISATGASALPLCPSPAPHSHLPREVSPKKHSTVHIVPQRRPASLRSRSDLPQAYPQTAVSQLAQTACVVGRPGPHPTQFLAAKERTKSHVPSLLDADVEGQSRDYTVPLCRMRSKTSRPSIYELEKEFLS
T10 sequence (P11802 whole entry): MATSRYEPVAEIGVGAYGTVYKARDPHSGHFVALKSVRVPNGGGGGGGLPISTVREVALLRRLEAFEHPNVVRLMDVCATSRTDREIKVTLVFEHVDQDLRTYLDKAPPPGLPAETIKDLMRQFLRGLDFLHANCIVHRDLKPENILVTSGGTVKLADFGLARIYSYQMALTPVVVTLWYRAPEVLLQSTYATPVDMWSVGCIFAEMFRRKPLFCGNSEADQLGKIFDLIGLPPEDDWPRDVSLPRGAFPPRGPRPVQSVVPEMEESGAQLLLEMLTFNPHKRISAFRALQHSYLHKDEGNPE
T10 sequence (P24385 whole entry partner): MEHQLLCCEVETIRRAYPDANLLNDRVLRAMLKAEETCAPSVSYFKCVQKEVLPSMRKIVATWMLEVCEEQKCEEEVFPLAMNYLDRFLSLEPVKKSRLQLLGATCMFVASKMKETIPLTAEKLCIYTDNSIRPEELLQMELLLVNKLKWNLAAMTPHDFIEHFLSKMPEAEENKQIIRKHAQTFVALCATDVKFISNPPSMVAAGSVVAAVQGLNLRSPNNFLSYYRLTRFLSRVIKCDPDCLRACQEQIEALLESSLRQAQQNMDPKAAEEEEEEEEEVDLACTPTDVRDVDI
T37 sequence (Q00536 whole entry): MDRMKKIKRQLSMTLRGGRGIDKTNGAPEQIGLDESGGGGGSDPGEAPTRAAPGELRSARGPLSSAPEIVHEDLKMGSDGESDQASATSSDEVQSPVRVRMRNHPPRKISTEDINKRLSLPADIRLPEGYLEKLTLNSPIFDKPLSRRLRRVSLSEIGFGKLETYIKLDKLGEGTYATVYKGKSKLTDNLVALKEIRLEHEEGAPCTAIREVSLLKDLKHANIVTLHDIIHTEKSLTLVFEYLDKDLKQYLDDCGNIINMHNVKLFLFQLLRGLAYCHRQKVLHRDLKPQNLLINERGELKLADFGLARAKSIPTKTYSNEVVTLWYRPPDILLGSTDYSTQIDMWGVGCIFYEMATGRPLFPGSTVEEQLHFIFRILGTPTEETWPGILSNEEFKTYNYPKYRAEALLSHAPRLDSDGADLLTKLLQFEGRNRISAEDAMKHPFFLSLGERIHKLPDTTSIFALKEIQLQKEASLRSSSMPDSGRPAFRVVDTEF
T37 sequence (Q8ND76 whole entry partner): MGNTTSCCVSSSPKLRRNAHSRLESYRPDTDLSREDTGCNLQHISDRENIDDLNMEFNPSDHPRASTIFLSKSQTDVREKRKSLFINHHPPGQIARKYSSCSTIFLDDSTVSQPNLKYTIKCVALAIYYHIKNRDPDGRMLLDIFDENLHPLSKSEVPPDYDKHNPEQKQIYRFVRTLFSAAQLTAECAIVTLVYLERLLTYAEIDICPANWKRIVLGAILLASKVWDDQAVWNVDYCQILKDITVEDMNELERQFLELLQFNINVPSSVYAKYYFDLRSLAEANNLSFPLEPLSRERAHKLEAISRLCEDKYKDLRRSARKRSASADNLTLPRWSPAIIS

CCn1cnc2c(NCc3ccc(-c4ccccn4)nc3)nc(-c3ccc(N)nc3)nc21 [Compound 30d, N-([2,2′-Bipyridin]-5-ylmethyl)-2-(6-aminopyridin-3-yl)-9-ethyl-9H-purin-6-amine]
remaining activity at 10 µM (MARK1): 81.5% | remaining activity at 10 µM (PBK/TOPK): 93.5% | remaining activity at 10 µM (CSNK1D): 10.2% | remaining activity at 10 µM (PASK): 96.3% | remaining activity at 10 µM (STK23): 82.8% | remaining activity at 10 µM (PKN3): 81.6% | remaining activity at 10 µM (BMX): 141% | remaining activity at 10 µM (CDK6/cyclinD1): 24.2% | remaining activity at 10 µM (RSK3): 58.1% | remaining activity at 10 µM (CDK4/cyclinD1): 33.5% | remaining activity at 10 µM (CHEK1): 79.5% | remaining activity at 10 µM (GSK3b): 5.8% | remaining activity at 10 µM (FLT3): 40.2% | remaining activity at 10 µM (ASK1): 18.4% | remaining activity at 10 µM (NLK): 24.8% | remaining activity at 10 µM (HIPK3): 94.1% | remaining activity at 10 µM (MAP4K5): 88.3% | remaining activity at 10 µM (MEK3): 73.5% | remaining activity at 10 µM (AurkB): 73% | remaining activity at 10 µM (PKAC-gamma): 88.4% | remaining activity at 10 µM (PAK1): 24.5% | remaining activity at 10 µM (TESK1): 93.1% | remaining activity at 10 µM (IRAK2): 97.5% | remaining activity at 10 µM (S6K1): 92.1% | remaining activity at 10 µM (LIMK1): 59.9% | remaining activity at 10 µM (DDR2): 87.2% | inhibition at 10 µM (CDK1/cyclinB): > 95% | remaining activity at 10 µM (CDK1/cyclinB): 2.1% | remaining activity at 10 µM (NEK4): 95.8% | remaining activity at 10 µM (NEK3): 86.6% | remaining activity at 10 µM (RSK1): 59.1% | remaining activity at 10 µM (SYK): 48.4% | remaining activity at 10 µM (MLK3): 51.4% | remaining activity at 10 µM (PKN1): 85.4% | remaining activity at 10 µM (MLK4): 114% | remaining activity at 10 µM (CIT): 97.9% | remaining activity at 10 µM (EPHA1): 13.2% | remaining activity at 10 µM (CDK16): 17.5% | remaining activity at 10 µM (ARAF): 79.5% | remaining activity at 10 µM (SRMS): 96.8% | remaining activity at 10 µM (PRKX): 79.2% | remaining activity at 10 µM (YSK4): 96.8% | remaining activity at 10 µM (FRK): 43.5% | remaining activity at 10 µM (PCTK2): 7.3% | inhibition at 10 µM (CDK5/p35): > 95% | remaining activity at 10 µM (CDK5/p35): 0.7%
